From patent US20060014723A1, “Anti-parasitic uses of borinic acid complexes” (priority 2004, published 2006)

How the values were obtained:
[1] = system: P. Berghei; assay: In vivo efficacy mouse malaria model; conditions: 1×/day
Experimental: Test compounds will be compared to chloroquine, artemisinin, mefloquine as follows: NMRI mice, SPF, females, […]
From a donor mouse with approximately 30% parasitemia, heparinized blood is taken and diluted in physiological saline to 10^8 parasitized erythrocytes per mL. An aliquot of 0.2 mL (=2×10^7 parasitized erythrocytes) of this suspension is injected intravenously (i.v.) into experimental groups of 4 mice.
Two-to-four hours post-infection, the experimental groups are treated with a single dose by the subcutaneous or the oral route. The compounds are prepared at an appropriate concentration, as a solution or suspension containing 3% ethanol and 7% Tween 80 or in SSV (standard suspending vehicle): […]
Twenty-four hours after the last treatment ([…]) blood smears from all animals are prepared and stained with Giemsa. Parasitemia is determined microscopically by counting 400 red blood cells (“rbcs”), for low parasitemias (<1%) up to 4,000 rbc's have to be counted. The difference between the mean value of the control group (taken as 100%) and those of the experimental groups is calculated and expressed as % Reduction where: [formula]
Additional smears will be taken on day 5 and day 6; and parasitemia will be determined and the activity calculated. Survival time (in days) is recorded, and the mean survival time is calculated. Adverse effects are recorded. Four mice/compound and a minimum of 12 mice/study (vehicle and positive controls run concurrently) are used.

[2] = system: Leishmania donovani strain MHOM/ET1671L82; assay: Leishmaniasis in vitro screening model (axenic amastigotes, Alamar Blue); assay type: cell-based
How it was run: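 Axenic L. donovani amastigotes (10^5 per well) from hamster spleen, grown at 37° C in SM medium pH 5.4 with 10% FBS, 5% CO2, exposed to serial 3-fold compound dilutions (30 to 0.041 μg/mL) for 72 h. Alamar Blue added for 2 h, fluorescence read (ex 536/em 588 nm); IC50 from sigmoidal curve versus control cultures.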

[3] = system: Trypanosoma cruzi Tulahuen C2C4 strain; assay: Chagas disease in vitro screening model (beta-galactosidase strain in L-6 cells); assay type: cell-based
How it was run: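 L-6 rat myoblasts in RPMI 1640/10% FBS at 37 °C were infected with 5×10^3 lacZ-expressing T. cruzi Tulahuen C2C4 trypomastigotes. CPRG/Nonidet substrate was read at 540 nm, and IC50 came from sigmoidal curves.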

[4] = system: P. falciparum K1; assay: Malaria in vitro screening model (3H-hypoxanthine incorporation); assay type: cell-based, Plasmodium falciparum
How it was run: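 Chloroquine/pyrimethamine-resistant P. falciparum K1 in human A+ erythrocytes (0.15% parasitemia, 2.5% hematocrit) was exposed to seven 2-fold compound dilutions in hypoxanthine-free medium at 37 °C, low O2. After 48 h, 0.5 μCi ³H-hypoxanthine was added for 24 h more. IC50 was taken from sigmoidal curves as % of untreated control.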

[5] = system: T. b. rhodesiense STIB 900; assay: African sleeping sickness in vitro screening model (Alamar Blue); assay type: cell-based, Trypanosoma brucei rhodesiense
How it was run: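 Bloodstream-form trypomastigotes, 8×10^3/well, were grown in supplemented MEM with 15% horse serum, without hypoxanthine, at 37 °C in 5% CO2. They were exposed for 72 h to seven 3-fold dilutions from 90 to 0.123 μg/mL. Resazurin (Alamar Blue) was added for 2 h, fluorescence read at ex 536/em 588 nm, and IC50 taken as the mean of four values.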

| SMILES | % of Activity ([1]; 4 × 30 mg/kg, s.c.) | Mean Survival ([1]; 4 × 30 mg/kg, s.c.) | Parasitized RBC over 100 % of Control ([1]; 4 × 30 mg/kg, s.c.) | Parasitized RBC over 100 Mean ([1]; 4 × 30 mg/kg, s.c.) | % of Activity ([1]; 4 × 100 mg/kg, p.o.) | Mean Survival ([1]; 4 × 100 mg/kg, p.o.) | Parasitized RBC over 100 % of Control ([1]; 4 × 100 mg/kg, p.o.) | Parasitized RBC over 100 Mean ([1]; 4 × 100 mg/kg, p.o.) | L. donovani IC50 [2] | T. cruzi IC50 [3] | P. falciparum IC50 [4] | T. b. rhodesiense IC50 [5] |
| --- | --- | --- | --- | --- | --- | --- | --- | --- | --- | --- | --- | --- |
| Fc1cccc(B(Oc2cccc3cccnc23)c2ccc(Cl)cc2)c1 [Compound 11, (4-Chlorophenyl)(3-fluorophenyl) borinic acid quinolin-8-yl ester] | 42.46% | 19.7 days | 57.54% | 14.3 | 58.22% | 15.0 days | 41.78% | 10.4 | – | – | – | – |
| N#Cc1cccc(B(Oc2cccc3cccnc23)c2ccc(F)cc2F)c1 [Compound 96] | – | – | – | – | – | – | – | – | 0.63 mg/L | 3.3 mg/L | 3.035 mg/L | 0.34 mg/L |
| N#Cc1ccc(B(Oc2cccc3cccnc23)c2ccc(F)c(F)c2)cc1 [Compound 97] | – | – | – | – | – | – | – | – | 0.58 mg/L | 3.45 mg/L | 4.036 mg/L | 0.37 mg/L |
| N#Cc1ccc(B(Oc2cccc3cccnc23)c2ccc(F)cc2F)cc1 [Compound 98] | – | – | – | – | – | – | – | – | 0.59 mg/L | 4.05 mg/L | 3.245 mg/L | 0.345 mg/L |
| CS(=O)(=O)Nc1ccc(B(Oc2cccc3cccnc23)c2cccc(Cl)c2)cc1 [Compound 108] | – | – | – | – | – | – | – | – | 0.59 mg/L | 4.95 mg/L | 2.417 mg/L | 0.305 mg/L |
| Fc1cccc(B(Oc2cccc3cccnc23)c2ccc(Cl)c(C(F)(F)F)c2)c1 [Compound 115] | – | – | – | – | – | – | – | – | 0.59 mg/L | 3.6 mg/L | 3.077 mg/L | 0.465 mg/L |
| C=CB(Oc1cccc2cccnc12)c1ccc(F)c(Cl)c1 [Compound 116] | – | – | – | – | – | – | – | – | >30 mg/L | 3.65 mg/L | 3.95 mg/L | 0.5865 mg/L |
| CN(C)Cc1ccc(B(Oc2cccc3cccnc23)c2cc(F)cc(C(F)(F)F)c2)cc1 [Compound 120] | – | – | – | – | – | – | – | – | 0.44 mg/L | 4.9 mg/L | 2.794 mg/L | 0.42 mg/L |
| N#Cc1ccc(B(Oc2cccc3cccnc23)c2cc(F)cc(C(F)(F)F)c2)cc1 [Compound 122] | – | – | – | – | – | – | – | – | 0.45 mg/L | 4.55 mg/L | 4.577 mg/L | 0.4 mg/L |
| Fc1cc(B(Oc2cccc3cccnc23)c2cccc(Cl)c2)cc(C(F)(F)F)c1 [Compound 123] | – | – | – | – | – | – | – | – | 0.54 mg/L | 4 mg/L | 3.51 mg/L | 0.31 mg/L |
| CN(C)Cc1ccc(B(Oc2cccc3cccnc23)c2ccc(C#N)cc2)cc1 [Compound 125] | – | – | – | – | – | – | – | – | 0.38 mg/L | 4.9 mg/L | 4.973 mg/L | 0.5 mg/L |
| CN(C)Cc1ccc(B(Oc2cccc3cccnc23)c2cccc(C3=NC(C)(C)CO3)c2)cc1 [Compound 126] | – | – | – | – | – | – | – | – | 0.45 mg/L | 5.05 mg/L | 4.746 mg/L | 0.595 mg/L |
| Nc1cccc(C(=O)OB(c2ccc(Cl)cc2)c2ccc(Cl)cc2)n1 [Compound 131] | – | – | – | – | – | – | – | – | 0.24 mg/L | 0.0535 mg/L | 0.6855 mg/L | 7.6 mg/L |
